# Measured values from patent US8470829B2 (priority 2004, dated 2013).
# Molecular target: T1, human androgen receptor (Homo sapiens, UniProt P10275)
# T1 construct: expressed in transfected cells
# T1 sequence (P10275 1-920): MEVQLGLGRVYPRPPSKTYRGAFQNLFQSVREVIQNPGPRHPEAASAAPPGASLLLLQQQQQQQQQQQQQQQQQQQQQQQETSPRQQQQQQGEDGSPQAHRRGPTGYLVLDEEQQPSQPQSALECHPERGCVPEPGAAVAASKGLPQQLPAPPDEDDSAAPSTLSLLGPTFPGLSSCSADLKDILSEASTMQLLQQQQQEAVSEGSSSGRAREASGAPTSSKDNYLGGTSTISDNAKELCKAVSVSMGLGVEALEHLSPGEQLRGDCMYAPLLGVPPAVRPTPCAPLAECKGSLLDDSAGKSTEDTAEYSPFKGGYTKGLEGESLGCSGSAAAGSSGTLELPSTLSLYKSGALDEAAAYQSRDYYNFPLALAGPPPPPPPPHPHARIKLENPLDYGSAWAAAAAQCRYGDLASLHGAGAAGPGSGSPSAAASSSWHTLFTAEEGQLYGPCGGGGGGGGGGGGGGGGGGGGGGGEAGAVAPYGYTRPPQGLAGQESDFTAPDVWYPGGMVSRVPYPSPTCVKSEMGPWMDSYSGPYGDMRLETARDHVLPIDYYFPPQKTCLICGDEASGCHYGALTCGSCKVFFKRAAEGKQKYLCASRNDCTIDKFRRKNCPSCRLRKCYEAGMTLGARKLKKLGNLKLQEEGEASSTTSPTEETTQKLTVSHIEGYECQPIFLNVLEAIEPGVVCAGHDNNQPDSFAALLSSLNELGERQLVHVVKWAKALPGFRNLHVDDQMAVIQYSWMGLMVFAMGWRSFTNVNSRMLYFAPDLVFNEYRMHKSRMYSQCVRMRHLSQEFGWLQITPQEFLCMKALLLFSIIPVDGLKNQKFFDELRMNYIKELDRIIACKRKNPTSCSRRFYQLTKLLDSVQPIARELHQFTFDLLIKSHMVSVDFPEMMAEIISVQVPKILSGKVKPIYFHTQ
# Assay: Measurement of agonist effect on androgen receptor (reporter gene assay, 11A11B2 cells)
# Assay type: cell-based
# Settings: compound concentration showing a transcription activity of 5% (0.1 nmol/L DHT = 100%, assay medium alone = 0%), 48 hours
# Protocol: (§1) HeLa cells (purchased from Dai-Nippon Seiyaku K. K.) were cultured overnight in Dulbecco's Modified Eagle Medium containing no phenol red, but containing 3% charcoal-treated fetal bovine serum (hereafter referred to as DCC-FBS) (this medium is hereafter referred to as phenol-red-free DMEM). An MMTV-Luc-Hyg vector (reporter plasmid with mouse mammary tumor virus long terminal repeat, containing an androgen response element and a hygromycin resistance gene: a vector obtained by substituting a chloramphenicol acetyl transferease gene of a GM-CAT vector (A.T.C.C No. 67282) purchased from the A.T.C.C. with the firefly luciferase gene, and inserting a hygromycin resistance gene as a drug resistant gene), and pSG5-hAR-neo (human androgen receptor expression vector: a vector having an androgen receptor gene under the control of the SV40 promoter, and having a neomycin resistance gene inserted as a drug resistance gene) were transfected into the HeLa cells using an FuGENE™ 6 Transfection Reagent (obtained from Roche).
# (§2) The clone cells thus obtained (11A11B2 cells) were maintained and propagated using DMEM containing 400 μg/mL neomycin, 200 μg/mL hygromycin and 10% FBS, and were propagated using phenol-red-free DMEM containing 10% DCC-FBS three to four days prior to the performance of an androgen receptor reporter gene assay.
# The 11A11B2 cells were inoculated in a white clear-bottomed 96-well microplate (COSTAR) so that the cell concentration was 1.0×10^4/well, and were cultured overnight using phenol-red-free DMEM containing 3% DCC-FBS (hereafter referred to as the assay medium). Samples of the assay medium containing the compounds of the Examples and compounds of the Comparative Examples were added so that the final concentrations of the compounds of the Examples and compounds of the Comparative Examples were 1, 10, 100, 1,000 and 10,000 nmol/L), and the cells were cultured for 48 hours, after which the transcription activity value was measured. The transcription activity was measured using a Bright-Glo™ Luciferase Assay System (Promega).
# The transcription activity rates of the compounds of the Examples were calculated from the transcription activity measured by the abovementioned method, with the transcription activity value obtained at 0.1 nmol/L DHT taken as 100%, and the transcription activity value in the case of the assay medium alone taken as 0%. The compound concentration showing a transcription activity of 5% (EC5 value) was calculated from a linear equation for two points on either side of 5%.
row,Compound,EC5
1,"CCCS(=O)(=O)N1CCC(N2C(=O)N(c3ccc(C#N)c(Cl)c3C)C(=O)C2(C)C)CC1 [Example 11, 4-[3-(1-propanesulfonylpiperidin-4-yl)-4,4-dimethyl-2,5-dioxoimidazolidin-1-yl]-2-chloro-3-methylbenzonitrile]",>10 µM
2,"CN(C)CCOC(=O)Nc1ccc(N2C(=S)N(c3ccc(C#N)c(C(F)(F)F)c3)C(=O)C2(C)C)cn1 [Example 58, {5-[3-(4-cyano-3-trifluoromethylphenyl)-5,5-dimethyl-4-oxo-2-thioxoimidazolidin-1-yl]pyridin-2-yl}carbamic acid 2-dimethylaminoethyl ester]",>10 µM
3,"CN1C(=S)N(c2ccc(C#N)c(C(F)(F)F)c2)C(=O)C1(C)C [Comparative Example 1, 4-(5-oxo-2-thioxo-3,4,4-trimethyl-1-imidazolidinyl)-2-trifluoromethylbenzonitrile, reference compound]",8e-05 µM
4,"CCNC(=O)N1CCC(N2C(=S)N(c3ccc(C#N)c(Cl)c3)C(=O)C2(C)C)CC1 [Example 40, 4-[3-(1-ethylaminocarbonylpiperidin-4-yl)-4,4-dimethyl-5-oxo-2-thioxoimidazolidin-1-yl]-2-chlorobenzonitrile]",>10 µM
5,"CN(C)CCOC(=O)Nc1cc(N2C(=S)N(c3ccc(C#N)c(Cl)c3)C(=O)C2(C)C)ccc1Cl [Example 53, {2-chloro-5-[3-(4-cyano-3-chlorophenyl)-5,5-dimethyl-4-oxo-2-thioxoimidazolidin-1-yl]phenyl}-carbamic acid 2-dimethylaminoethyl ester]",>10 µM
6,"CC1(C)C(=O)N(c2ccc(C#N)c(C(F)(F)F)c2)C(=S)N1C1CCN(C(=O)OCC(O)CO)CC1 (centres unmarked) [Example 45, 4-[3-(4-cyano-3-trifluoromethylphenyl)-5,5-dimethyl-4-oxo-2-thioxoimidazolidin-1-yl]piperidine-1-carboxylic acid 2,3-dihydroxypropyl ester]",>10 µM
7,"CC1(C)C(=O)N(c2ccc(C#N)c(Cl)c2)C(=S)N1c1ccc2sc(NC(=O)NCC(O)CO)nc2c1 (centres unmarked) [Example 62, 1-{5-[3-(3-chloro-4-cyanophenyl)-5,5-dimethyl-4-oxo-2-thioxoimidazolidin-1-yl]benzothiazol-2-yl}-3-(2,3-dihydroxypropyl)urea]",>10 µM
8,"CC1(C)C(=O)N(c2ccc(C#N)c(C(F)(F)F)c2)C(=S)N1c1ccc(Cl)c(NC(=O)CCC(N)=O)c1 [Example 67, N-{2-chloro-5-[3-(4-cyano-3-trifluoromethylphenyl)-5,5-dimethyl-4-oxo-2-thioxoimidazolidin-1-yl]phenyl}-succinamide]",>10 µM
9,"CC(=O)NCCN1C(=S)N(c2ccc(C#N)c(C(F)(F)F)c2)C(=O)C1(C)C [Comparative Example 2, 4-[3′-(2″-N-acetylaminoethyl)-4′,4′-dimethyl-5′-oxo-2′-thioxo-1′-imidazolidinyl]-2-trifluoromethylbenzonitrile, reference compound]",3 µM
10,"COc1cc(N2C(=O)C(C)(C)N(c3ccc(Cl)c(NC(=O)OCC(O)CO)c3)C2=S)ccc1C#N (centres unmarked) [Example 51, {2-chloro-5-[3-(4-cyano-3-methoxyphenyl)-5,5-dimethyl-4-oxo-2-thioxoimidazolidin-1-yl]phenyl}-carbamic acid 2,3-dihydroxypropyl ester]",>10 µM
11,"CCNC(=O)N1CCC(N2C(=S)N(c3ccc(C#N)c(C(F)(F)F)c3)C(=O)C2(C)C)CC1 [Example 38, 4-[3-(1-ethylaminocarbonylpiperidin-4-yl)-4,4-dimethyl-5-oxo-2-thioxoimidazolidin-1-yl]-2-trifluoromethylbenzonitrile]",>10 µM

# Molecular target: T1, human androgen receptor
# Assay: Investigation of antagonist effect on androgen receptor (reporter gene assay, 11A11B2 cells, with DHT)
# Assay type: cell-based
# Settings: not given
# Protocol: as §1, §2
# The 11A11B2 cells were inoculated in a white clear-bottomed 96-well microplate (COSTAR) so that the cell concentration was 1.0×10^4/well, and were cultured overnight. The assay medium containing DHT was added so that the final concentration of DHT was 0.1 nmol/L, and samples of the assay medium containing the compounds of the Examples or compounds of the Comparative Examples were added so that the final concentrations of the compounds of the Examples or compounds of the Comparative Examples were 1, 10, 100, 1,000 and 10,000 nmol/L, respectively. After culturing for 48, hours, the transcription activity values were measured. The transcription activity was measured using a Bright-Glo™ Luciferase Assay System (Promega).
# The transcription activity rates of the compounds of the Examples were calculated from the transcription activity measured by the abovementioned method, with the transcription activity value obtained at 0.1 nmol/L DHT taken as 100%, and the transcription activity value in the case of the assay, medium alone taken as 0%.
row,Compound,IC50
1,"CN(C)CCOC(=O)Nc1ccc(N2C(=S)N(c3ccc(C#N)c(C(F)(F)F)c3)C(=O)C2(C)C)cn1 [Example 58, {5-[3-(4-cyano-3-trifluoromethylphenyl)-5,5-dimethyl-4-oxo-2-thioxoimidazolidin-1-yl]pyridin-2-yl}carbamic acid 2-dimethylaminoethyl ester]",0.5 µM

# Same assay, conditions: with 0.1 nmol/L DHT; transcription activity rate of Test Example 1 subtracted; 11A11B2 cells, 48 hours; read-out: IC50
row,Compound,IC50
1,"CCCS(=O)(=O)N1CCC(N2C(=O)N(c3ccc(C#N)c(Cl)c3C)C(=O)C2(C)C)CC1 [Example 11, 4-[3-(1-propanesulfonylpiperidin-4-yl)-4,4-dimethyl-2,5-dioxoimidazolidin-1-yl]-2-chloro-3-methylbenzonitrile]",0.3 µM
2,"CCNS(=O)(=O)N1CCC(N2C(=S)N(c3ccc(C#N)c(C(F)(F)F)c3)C(=O)C2(C)C)CC1 [Example 42, 4-[3-(1-ethylaminosulfonylpiperidin-4-yl)-4,4-dimethyl-5-oxo-2-thioxoimidazolidin-1-yl]-2-trifluoromethylbenzonitrile]",0.7 µM
